Drawing on patent US11878973B2, “Bicyclic compounds and their uses” (NOVARTIS AG, priority 2021, dated 2024), this text covers GI50 and IC50 for 17 molecules.

In general, IC50 refers to the concentration needed to halve the response being measured.

The test system of one assay is DLD1-WRN-KO cells. Put plainly: Proliferation assay DLD1-WRN-KO (CellTiterGlo, 96 hours; off-target effects). The following applies: Homo sapiens, read-out: Proliferation Assay DLD1-WRN-KO (GI50).
Another assay concerns the target WRN helicase (Homo sapiens (Human), UniProt Q14191). The experiment in a line: In vitro enzymatic activity assay on WRN helicase (DNA dependent ATPase assay, ADP-Glo). It is filed as biochemical. The following applies: geometric means of at least 2 determinations; read-out: WRN ATPase Activity (IC50). The method in brief: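 The WRN helicase core (aa N517-P1238), 10 nM, hydrolysed 300 µM ATP in the presence of 0.2 nM FLAP26 DNA (Tris pH 7.5, 2 mM MgCl2, 50 mM NaCl) for 30 min at room temperature. ADP formed was quantified by ADP-Glo luminescence.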
(In ADP-Glo the light output rises with the ADP produced.)

For a further assay, the system named is SW48 cells. Put plainly: Proliferation assay SW48 (CellTiterGlo, 96 hours). The note with it: Homo sapiens, SW48, read-out: Proliferation Assay SW48 (GI50). For orientation: ATP-based viability assays read luminescence as a measure of living cells.

Some results are limits rather than exact numbers.

Chain of WRN helicase (Q14191 517-1238): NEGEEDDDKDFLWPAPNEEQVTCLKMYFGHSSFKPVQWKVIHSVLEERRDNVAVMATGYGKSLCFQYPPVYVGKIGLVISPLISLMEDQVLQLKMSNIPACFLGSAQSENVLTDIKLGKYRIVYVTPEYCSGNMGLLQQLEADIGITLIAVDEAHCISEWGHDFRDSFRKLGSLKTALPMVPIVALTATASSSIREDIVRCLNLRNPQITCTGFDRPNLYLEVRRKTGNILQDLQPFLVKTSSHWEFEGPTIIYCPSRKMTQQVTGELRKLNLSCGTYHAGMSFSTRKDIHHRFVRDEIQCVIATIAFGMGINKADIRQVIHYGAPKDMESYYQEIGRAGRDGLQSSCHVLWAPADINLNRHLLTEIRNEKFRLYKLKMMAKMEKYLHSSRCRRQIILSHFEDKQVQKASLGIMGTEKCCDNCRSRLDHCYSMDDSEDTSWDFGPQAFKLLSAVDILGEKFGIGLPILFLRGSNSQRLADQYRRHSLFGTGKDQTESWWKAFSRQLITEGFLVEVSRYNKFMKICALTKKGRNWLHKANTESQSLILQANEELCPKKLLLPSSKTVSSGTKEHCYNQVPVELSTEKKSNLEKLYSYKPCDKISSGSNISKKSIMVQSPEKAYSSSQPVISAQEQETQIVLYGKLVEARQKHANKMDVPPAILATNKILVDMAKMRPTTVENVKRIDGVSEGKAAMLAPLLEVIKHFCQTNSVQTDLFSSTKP
Protocol for SW48 cells: The WRN-knockdown insensitive colon carcinoma cell line DLD-1 (RRID: CVCL_0248) was obtained from the Korean Cell Line Bank (KCLB), and used to generate a derivative in which the endogenous WRN gene copies were knocked out by CRISPR-mediated editing using standard CRISPR methods. The resulting cell line, DLD1-WRN—KO, was used to assess potential off-target compound effects.
All cells were maintained at 37° C. in a humidified 5% CO2 incubator.
For data analysis, the assay background signal that was determined in wells containing medium, but no cells, was subtracted from all other data points prior to further calculations. The extent of growth inhibition and potential cell kill was assessed by comparing the ATP levels (measured using CellTiterGlo, Promega) in compound-treated cells with those present at the time of compound addition. […] 100%, 0% and −100% signify absence of growth inhibition, growth stasis, and complete cell kill, respectively. Compound concentrations leading to half-maximal growth inhibition (G150) and residual cell viability at the highest tested compound concentration (Data (cmax), expressed in percent) were routinely calculated. Data analysis can also be carried out using commercially available software designed to derive IC50 values using 4-parameter fits (e.g. GraphPad Prism, XL fit). The reported GI50 values are the geometrical means of at least 2 independent replicates.

For the molecule `CCc1c(N2CCN(C(=O)c3ncccc3O)CC2)c(=O)n2nc(C3=CCOCC3)nc2n1CC(=O)Nc1ccc(C(F)(F)F)cc1F` [Example 92, 2-(2-(3,6-dihydro-2H-pyran-4-yl)-5-ethyl-6-(4-(3-hydroxypicolinoyl)piperazin-1-yl)-7-oxo-[1,2,4]triazolo[1,5-a]pyrimidin-4(7H)-yl)-N-(2-fluoro-4-(trifluoromethyl)phenyl)acetamide], the GI50 was > 10000 nM in the assay on DLD1-WRN-KO cells and 80 nM with SW48 cells. Besides, the IC50 on WRN helicase was determined as 50 nM.

Consider `CCc1c(N2CCN(C(=O)c3ncnc(C)c3O)CC2)c(=O)n2nc(C3=CCOCC3)nc2n1CC(=O)Nc1ccc(C(F)(F)F)c(F)c1C` [Example 93, 2-(2-(3,6-dihydro-2H-pyran-4-yl)-5-ethyl-6-(4-(5-hydroxy-6-methylpyrimidine-4-carbonyl)piperazin-1-yl)-7-oxo-[1,2,4]triazolo[1,5-a]pyrimidin-4(7H)-yl)-N-(3-fluoro-2-methyl-4-(trifluoromethyl)phenyl)acetamide], for which the GI50 in the assay with DLD1-WRN-KO cells was > 10000 nM; in the assay on SW48 cells it was 70 nM. In addition, the IC50 at WRN helicase was 80 nM.

Regarding `CCc1c(N2CCN(C(=O)c3ncccc3O)CC2)c(=O)n2nc(C3=CCOCC3)nc2n1CC(=O)Nc1cc(F)c(C(F)(F)F)cc1C` [Example 94, 2-(2-(3,6-dihydro-2H-pyran-4-yl)-5-ethyl-6-(4-(3-hydroxypicolinoyl)piperazin-1-yl)-7-oxo-[1,2,4]triazolo[1,5-a]pyrimidin-4(7H)-yl)-N-(5-fluoro-2-methyl-4-(trifluoromethyl)phenyl)acetamide], the GI50 in the assay with DLD1-WRN-KO cells was > 10000 nM; in the assay with SW48 cells it was 50 nM. Further, the IC50 on WRN helicase stood at 40 nM.

With `CCc1c(N2CCN(C(=O)c3nccc(Cl)c3O)CC2)c(=O)n2nc(C3=CCOCC3)nc2n1CC(=O)Nc1cc(F)c(C(F)(F)F)cc1C` [Example 95, 2-(6-(4-(4-chloro-3-hydroxypicolinoyl)piperazin-1-yl)-2-(3,6-dihydro-2H-pyran-4-yl)-5-ethyl-7-oxo-[1,2,4]triazolo[1,5-a]pyrimidin-4(7H)-yl)-N-(5-fluoro-2-methyl-4-(trifluoromethyl)phenyl)acetamide], the GI50 in the assay on DLD1-WRN-KO cells is > 10000 nM; in the assay on SW48 cells it was 60 nM. For the same molecule, at WRN helicase, the IC50 is 50 nM.

Regarding `CCc1c(N2CCN(C(=O)c3ncccc3O)CC2)c(=O)n2nc(C3=CCOCC3)nc2n1CC(=O)Nc1ccc(C(F)(F)F)cc1Cl` [Example 96, N-(2-chloro-4-(trifluoromethyl)phenyl)-2-(2-(3,6-dihydro-2H-pyran-4-yl)-5-ethyl-6-(4-(3-hydroxypicolinoyl)piperazin-1-yl)-7-oxo-[1,2,4]triazolo[1,5-a]pyrimidin-4(7H)-yl)acetamide], the GI50 in the assay with DLD1-WRN-KO cells was > 10000 nM; in the assay with SW48 cells, 60 nM. The IC50 at WRN helicase came out at 60 nM.

For the molecule `CCc1c(N2CCN(C(=O)c3ncc(C)c(F)c3O)CC2)c(=O)n2nc(C3=CCOCC3)nc2n1CC(=O)Nc1ccc(C(F)(F)F)cc1Cl` [Example 97, N-(2-chloro-4-(trifluoromethyl)phenyl)-2-(2-(3,6-dihydro-2H-pyran-4-yl)-5-ethyl-6-(4-(4-fluoro-3-hydroxy-5-methylpicolinoyl)piperazin-1-yl)-7-oxo-[1,2,4]triazolo[1,5-a]pyrimidin-4(7H)-yl)acetamide], the GI50 in the assay on DLD1-WRN-KO cells is > 10000 nM; in the assay on SW48 cells, 70 nM. The IC50 on WRN helicase worked out at 80 nM.

Regarding `CCc1c(N2CCN(C(=O)c3nccc(OC(F)(F)F)c3O)CC2)c(=O)n2nc(C3=CCOCC3)nc2n1CC(=O)Nc1ccc(C(F)(F)F)cc1Cl` [Example 98, N-(2-chloro-4-(trifluoromethyl)phenyl)-2-(2-(3,6-dihydro-2H-pyran-4-yl)-5-ethyl-6-(4-(3-hydroxy-4-(trifluoromethoxy)picolinoyl)piperazin-1-yl)-7-oxo-[1,2,4]triazolo[1,5-a]pyrimidin-4(7H)-yl)acetamide], the GI50 in the assay with DLD1-WRN-KO cells is > 10000 nM; with SW48 cells it was 140 nM. For the same molecule, on WRN helicase, the IC50 was 40 nM.

Consider `CCc1c(N2CCN(C(=O)c3ncccc3O)CC2)c(=O)n2nc(C3=CCOCC3)nc2n1CC(=O)Nc1cc(F)c(C(F)(F)F)nc1Cl` [Example 99, N-(2-chloro-5-fluoro-6-(trifluoromethyl)pyridin-3-yl)-2-(2-(3,6-dihydro-2H-pyran-4-yl)-5-ethyl-6-(4-(3-hydroxypicolinoyl)piperazin-1-yl)-7-oxo-[1,2,4]triazolo[1,5-a]pyrimidin-4(7H)-yl)acetamide], for which the GI50 in the assay with DLD1-WRN-KO cells is > 10000 nM; in the assay on SW48 cells it was 280 nM. Also, on WRN helicase, the IC50 was 180 nM.

With `CCc1c(N2CCN(C(=O)c3ncnc(C)c3O)CC2)c(=O)n2nc(C3=CCOCC3)nc2n1CC(=O)Nc1ccc(S(F)(F)(F)(F)F)cc1C` [Example 100, 2-(2-(3,6-dihydro-2H-pyran-4-yl)-5-ethyl-6-(4-(5-hydroxy-6-methylpyrimidine-4-carbonyl)piperazin-1-yl)-7-oxo-[1,2,4]triazolo[1,5-a]pyrimidin-4(7H)-yl)-N-(2-methyl-4-(pentafluorosulfanyl)phenyl)acetamide], the GI50 in the assay on DLD1-WRN-KO cells is > 10000 nM; in the assay on SW48 cells, 30 nM. Besides, on WRN helicase, the IC50 worked out at 60 nM.

In the case of `CCc1c(N2CCN(C(=O)c3ncccc3O)CC2)c(=O)n2nc(C3=CCOCC3)nc2n1CC(=O)Nc1ccc(Cl)cc1Cl` [Example 101, N-(2,4-dichlorophenyl)-2-(2-(3,6-dihydro-2H-pyran-4-yl)-5-ethyl-6-(4-(3-hydroxypicolinoyl)piperazin-1-yl)-7-oxo-[1,2,4]triazolo[1,5-a]pyrimidin-4(7H)-yl)acetamide], the GI50 in the assay with DLD1-WRN-KO cells was > 10000 nM; with SW48 cells, 210 nM. For the same molecule, the IC50 at WRN helicase stood at 100 nM.

In the case of `CCc1c(N2CCN(C(=O)c3ncccc3O)CC2)c(=O)n2nc(C3=CCOCC3)nc2n1CC(=O)Nc1cc(Cl)c(C(F)(F)F)nc1C` [Example 102, N-(5-chloro-2-methyl-6-(trifluoromethyl)pyridin-3-yl)-2-(2-(3,6-dihydro-2H-pyran-4-yl)-5-ethyl-6-(4-(3-hydroxypicolinoyl)piperazin-1-yl)-7-oxo-[1,2,4]triazolo[1,5-a]pyrimidin-4(7H)-yl)acetamide], the GI50 in the assay with DLD1-WRN-KO cells is > 10000 nM; in the assay with SW48 cells, 170 nM. In addition, the half-inhibitory concentration (IC50) on WRN helicase worked out at 90 nM.

`CCc1c(N2CCN(C(=O)c3ncccc3O)CC2)c(=O)n2nc(C3=CCOCC3)nc2n1CC(=O)Nc1cc(C(F)(F)F)c(Cl)cc1C` [Example 103, N-(4-chloro-2-methyl-5-(trifluoromethyl)phenyl)-2-(2-(3,6-dihydro-2H-pyran-4-yl)-5-ethyl-6-(4-(3-hydroxypicolinoyl)piperazin-1-yl)-7-oxo-[1,2,4]triazolo[1,5-a]pyrimidin-4(7H)-yl)acetamide]: the GI50 was > 10000 nM in the assay with DLD1-WRN-KO cells and 250 nM with SW48 cells. Also, the half-inhibitory concentration (IC50) on WRN helicase came to 100 nM.

Regarding `CCc1cc(C)c(NC(=O)Cn2c(CC)c(N3CCN(C(=O)c4ncccc4O)CC3)c(=O)n3nc(C4=CCOCC4)nc23)cc1Cl` [Example 104, N-(5-chloro-4-ethyl-2-methylphenyl)-2-(2-(3,6-dihydro-2H-pyran-4-yl)-5-ethyl-6-(4-(3-hydroxypicolinoyl)piperazin-1-yl)-7-oxo-[1,2,4]triazolo[1,5-a]pyrimidin-4(7H)-yl)acetamide], the GI50 was > 10000 nM with DLD1-WRN-KO cells and 50 nM in the assay with SW48 cells. In addition, the concentration for half-maximal inhibition (IC50) on WRN helicase came to 70 nM.

As for `Cc1cc(Cl)ccc1NC(=O)Cn1c(C)c(N2CCN(C(=O)c3ncccc3O)CC2)c(=O)n2nc(C3=CCOCC3)nc12` [Example 105, N-(4-chloro-2-methylphenyl)-2-(2-(3,6-dihydro-2H-pyran-4-yl)-6-(4-(3-hydroxypicolinoyl)piperazin-1-yl)-5-methyl-7-oxo-[1,2,4]triazolo[1,5-a]pyrimidin-4(7H)-yl)acetamide], the results for the GI50 with DLD1-WRN-KO cells and in the assay on SW48 cells were > 10000 nM and 1130 nM, respectively. Further, the IC50 at WRN helicase stood at 200 nM.

In the case of `CCc1c(N2CCN(C(=O)c3ncnc(C)c3O)CC2)c(=O)n2nc(C3=CCOCC3)nc2n1CC(=O)Nc1ccc(Br)cc1Cl` [Example 106, N-(4-bromo-2-chlorophenyl)-2-(2-(3,6-dihydro-2H-pyran-4-yl)-5-ethyl-6-(4-(5-hydroxy-6-methylpyrimidine-4-carbonyl)piperazin-1-yl)-7-oxo-[1,2,4]triazolo[1,5-a]pyrimidin-4(7H)-yl)acetamide], the GI50 in the assay with DLD1-WRN-KO cells was > 10000 nM; in the assay with SW48 cells it was 110 nM. Also, the IC50 at WRN helicase was found to be 60 nM.

Take `CCc1c(N2CCN(C(=O)c3ncnc(C)c3O)CC2)c(=O)n2nc(C3=CCOCC3)nc2n1CC(=O)Nc1ccc(C(F)(F)F)cc1F` [Example 107, 2-(2-(3,6-dihydro-2H-pyran-4-yl)-5-ethyl-6-(4-(5-hydroxy-6-methylpyrimidine-4-carbonyl)piperazin-1-yl)-7-oxo-[1,2,4]triazolo[1,5-a]pyrimidin-4(7H)-yl)-N-(2-fluoro-4-(trifluoromethyl)phenyl)acetamide]: the values for the GI50 with DLD1-WRN-KO cells and with SW48 cells were > 10000 nM and 100 nM, respectively. Further, at WRN helicase, the concentration for half-maximal inhibition (IC50) amounted to 50 nM.

Regarding `CCc1c(N2CCN(C(=O)c3ncnc(C)c3O)CC2)c(=O)n2nc(C3=CCOCC3)nc2n1CC(=O)Nc1ccc(C(F)(F)F)cc1Br` [Example 108, N-(2-bromo-4-(trifluoromethyl)phenyl)-2-(2-(3,6-dihydro-2H-pyran-4-yl)-5-ethyl-6-(4-(5-hydroxy-6-methylpyrimidine-4-carbonyl)piperazin-1-yl)-7-oxo-[1,2,4]triazolo[1,5-a]pyrimidin-4(7H)-yl)acetamide], the GI50 in the assay with DLD1-WRN-KO cells is > 10000 nM; in the assay with SW48 cells it was 90 nM. Besides, the IC50 on WRN helicase was found to be 80 nM.
